The results in this text go back to patent publication US20100056524A1, “Compound” (priority 2008, published 2010).

One assay deals with T1, SRPK1 (Homo sapiens, UniProt Q96SB4).
T1 construct: All protein kinases were of human origin and encoded full length proteins, unless indicated otherwise; made in house
Briefly: SRPK1 protein kinase assay. The class given is biochemical. To be noted: for remaining activity at 1 µM: 1 μM compound; for remaining activity at 10 µM: 10 μM compound; for residual kinase activity SRPK1: 1 μm compound. The text has this:
(§1) All protein kinases were of human origin and encoded full length proteins, unless indicated otherwise. They were either expressed as glutathione S-transferase (GST) fusion proteins in Escherichia Coli or as hexahistidine (His6)-tagged proteins in insect Sf21 cells. GST fusion proteins were purified by affinity chromatography on glutathione-Sepharose, and His6-tagged proteins on nickel/nitriloacetate-agarose. The procedures for expressing some of the protein kinases used herein have been detailed previously.^8,9 The following sections outline the DNA vectors synthesised and the procedures used to express and purifying protein kinases that have not been reported previously.
(§2) All assays (25.5 μl) were carried out at room temperature (21° C.) and were linear with respect to time and enzyme concentration under the conditions used. Assays were performed for 30 min using Multidrop Micro reagent dispensers (Thermo Electron Corporation, Waltham, Mass. 02454, USA) in a 96-well format. The concentration of magnesium acetate in the assays was 10 mM and the [γ-33P] ATP (800 cpm/pmol) was used at 5, 20 or 50 μM as indicated, in order to be at or below the Km for ATP for each enzyme. Protein kinases assayed at 5 μM ATP were: —ERK1, ERK8, PKBα, MARK3, Aurora C. Protein kinases assayed at 20 μM ATP were: —JNK1, PDK1, CHK1, CHK2, CDK2 and Aurora B. Protein kinases assayed at 50 μM ATP were: —MNK2, IKKepsilon and TBK1.
(§3) The assays were initiated with MgATP, stopped by addition of 5 μl of 0.5 M orthophosphoric acid and spotted on to P81 filterplates using a unifilter harvester (PerkinElmer, Boston, Mass. 02118, USA). The IC50 values of inhibitors were determined after carrying out assays at 10 different concentrations of each compound.
(§4) Unless stated otherwise, enzymes were diluted in 50 mM Tris/HCl pH 7.5, 0.1 mM EGTA, 1 mg/ml BSA, 0.1% (v/v) 2-mercaptoethanol and assayed in 50 mM Tris/HCl pH 7.5, 0.1 mM EGTA, 0.1% (v/v) 2-mercaptoethanol.

For the next assay, the target named is T2, MSK1 (Homo sapiens, UniProt O75582).
T2 construct: All protein kinases were of human origin and encoded full length proteins, unless indicated otherwise; made in house
Briefly: MSK1 protein kinase assay. In kind it is biochemical. The following applies: for remaining activity at 1 µM: 1 μM compound; for remaining activity at 10 µM: 10 μM compound; for residual kinase activity MSK1: 1 μm compound.
Description: as §1, §2, §3, §4

The next assay concerns the target T3, ERK1 (Homo sapiens, UniProt P27361).
T3 construct: All protein kinases were of human origin and encoded full length proteins, unless indicated otherwise; GST; made in house; host or cells: E. coli
Briefly: ERK1 protein kinase assay. In kind it is biochemical. The following applies: for remaining activity at 1 µM: 1 μM compound; for remaining activity at 10 µM: 10 μM compound; for residual kinase activity ERK1: 1 μm compound.
Description: as §1
The following proteins were expressed in E. coli: —CHK2[5-543], cyclin-dependent protein kinase 2 (CDK2), MAP kinase-interacting kinase 2 (MNK2), extra-cellular signal-regulated kinase 1 (ERK1).
In order to produce activated forms of Aurora B and Aurora C, insect Sf21 cells were incubated for 1 h with the protein phosphatase inhibitor okadaic acid (50 nM). JNK isoforms were activated with MKK4 and MKK7, MNK2 with p38α MAPkinase; PKBα, PKBβ, with PDK1, and ERK1 with MKK1. To activate CDK2, bacterial pellets expressing cyclin A2 and CDK2 were mixed together, lyse and purified on glutathione Sepharose. The GST-tags were removed by cleavage with PreScission protease and the CDK2-cyclin A2 complex purified by chromatography on SP-Sepharose. It was then activated with CAK1/CDK7 followed by chromatography on nickel-nitrilotriacetate agarose to remove CAK1/CDK7, which binds to this column by virtue of its C-terminal His6 tag. All the other protein kinases were active as expressed.
as §2, §3
ERK1 and ERK8 were both assayed against myelin basic protein (MBP, 0.33 mg/ml). MARK3 was assayed against the peptide […] (300 μM), MNK2 against the eIF4E protein (0.5 mg/ml). PKBβ was assayed against the peptide […] (30 μM). TBK1 were assayed against ([…]) (300 μM). The substrates used for other protein kinases were described previously.^8,9
as §4

The next assay has as its target T4, PKD1 (Homo sapiens, UniProt Q15139).
T4 construct: All protein kinases were of human origin and encoded full length proteins, unless indicated otherwise; made in house
T4 sequence (Q15139 1-912): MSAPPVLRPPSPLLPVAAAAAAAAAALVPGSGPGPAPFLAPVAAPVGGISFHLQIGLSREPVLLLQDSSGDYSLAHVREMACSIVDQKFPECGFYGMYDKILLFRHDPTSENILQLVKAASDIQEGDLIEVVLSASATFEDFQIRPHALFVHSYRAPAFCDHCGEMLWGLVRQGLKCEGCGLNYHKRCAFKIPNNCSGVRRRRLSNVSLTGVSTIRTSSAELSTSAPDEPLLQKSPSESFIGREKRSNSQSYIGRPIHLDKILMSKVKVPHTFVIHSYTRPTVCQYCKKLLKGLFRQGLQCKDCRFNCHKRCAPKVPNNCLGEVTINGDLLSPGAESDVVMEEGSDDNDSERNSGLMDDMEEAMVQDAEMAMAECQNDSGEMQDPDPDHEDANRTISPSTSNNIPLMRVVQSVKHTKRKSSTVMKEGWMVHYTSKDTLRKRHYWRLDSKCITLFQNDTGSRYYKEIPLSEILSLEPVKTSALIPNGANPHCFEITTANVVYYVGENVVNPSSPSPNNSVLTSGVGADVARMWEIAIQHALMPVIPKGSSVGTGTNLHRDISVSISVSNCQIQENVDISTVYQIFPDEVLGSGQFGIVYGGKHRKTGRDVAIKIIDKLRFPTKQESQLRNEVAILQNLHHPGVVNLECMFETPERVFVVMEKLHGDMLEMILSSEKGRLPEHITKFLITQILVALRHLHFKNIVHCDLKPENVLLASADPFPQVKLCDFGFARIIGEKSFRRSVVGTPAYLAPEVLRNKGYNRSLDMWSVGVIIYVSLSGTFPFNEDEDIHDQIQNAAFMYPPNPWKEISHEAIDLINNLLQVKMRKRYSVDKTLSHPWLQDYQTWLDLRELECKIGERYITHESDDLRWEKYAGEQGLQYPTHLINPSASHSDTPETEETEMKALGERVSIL
The assay is described as follows: PKD1 protein kinase assay. In kind it is biochemical. The following applies: for remaining activity at 1 µM: 1 μM compound; for remaining activity at 10 µM: 10 μM compound; for residual kinase activity PKD1: 1 μm compound.
Description: as §1, §2, §3, §4

In the next assay the test system is IGF-1R. The assay is described as follows: IGF-1R protein kinase assay. To be noted: for residual kinase activity: IGF-1R. In kind it is biochemical, human.
Description: as §1, §2, §3, §4

Where [1] appears, read: SRPK1, read-out: residual kinase activity.
[2] abbreviates: MSK1, read-out: residual kinase activity.
Setting [3] is: ERK1, 5 μM ATP, read-out: residual kinase activity.
Where [4] appears, read: PKD1, read-out: residual kinase activity.
Where [5] appears, read: read-out: residual kinase activity SRPK1.
Where [6] appears, read: read-out: residual kinase activity MSK1.
Where [7] appears, read: read-out: residual kinase activity ERK1.
Where [8] appears, read: read-out: residual kinase activity PKD1.

Structures can show the parent of a compound that is named as a salt. Where two headings read alike, the source gives them in different places.

T2 sequence (O75582 whole entry): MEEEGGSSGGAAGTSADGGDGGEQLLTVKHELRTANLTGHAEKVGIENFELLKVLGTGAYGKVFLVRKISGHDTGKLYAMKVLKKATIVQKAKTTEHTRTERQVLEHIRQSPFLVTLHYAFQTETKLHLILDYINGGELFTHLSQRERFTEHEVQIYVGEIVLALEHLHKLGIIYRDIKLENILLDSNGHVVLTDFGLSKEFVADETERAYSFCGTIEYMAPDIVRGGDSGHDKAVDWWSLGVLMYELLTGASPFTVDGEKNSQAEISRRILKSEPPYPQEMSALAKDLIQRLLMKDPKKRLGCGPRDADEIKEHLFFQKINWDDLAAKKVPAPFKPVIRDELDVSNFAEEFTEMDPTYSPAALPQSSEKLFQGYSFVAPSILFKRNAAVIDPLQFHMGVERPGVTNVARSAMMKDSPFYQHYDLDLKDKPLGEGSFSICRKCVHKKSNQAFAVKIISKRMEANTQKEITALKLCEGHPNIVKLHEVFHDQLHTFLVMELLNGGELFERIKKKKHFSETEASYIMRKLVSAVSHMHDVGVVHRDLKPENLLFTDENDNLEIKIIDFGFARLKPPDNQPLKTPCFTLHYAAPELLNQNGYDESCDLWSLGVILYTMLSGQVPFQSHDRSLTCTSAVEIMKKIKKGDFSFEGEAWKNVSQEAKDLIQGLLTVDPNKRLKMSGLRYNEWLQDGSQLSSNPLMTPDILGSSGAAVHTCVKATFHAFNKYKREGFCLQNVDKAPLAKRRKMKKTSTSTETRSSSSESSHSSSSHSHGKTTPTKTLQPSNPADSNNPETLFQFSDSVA
T1 sequence (Q96SB4 whole entry): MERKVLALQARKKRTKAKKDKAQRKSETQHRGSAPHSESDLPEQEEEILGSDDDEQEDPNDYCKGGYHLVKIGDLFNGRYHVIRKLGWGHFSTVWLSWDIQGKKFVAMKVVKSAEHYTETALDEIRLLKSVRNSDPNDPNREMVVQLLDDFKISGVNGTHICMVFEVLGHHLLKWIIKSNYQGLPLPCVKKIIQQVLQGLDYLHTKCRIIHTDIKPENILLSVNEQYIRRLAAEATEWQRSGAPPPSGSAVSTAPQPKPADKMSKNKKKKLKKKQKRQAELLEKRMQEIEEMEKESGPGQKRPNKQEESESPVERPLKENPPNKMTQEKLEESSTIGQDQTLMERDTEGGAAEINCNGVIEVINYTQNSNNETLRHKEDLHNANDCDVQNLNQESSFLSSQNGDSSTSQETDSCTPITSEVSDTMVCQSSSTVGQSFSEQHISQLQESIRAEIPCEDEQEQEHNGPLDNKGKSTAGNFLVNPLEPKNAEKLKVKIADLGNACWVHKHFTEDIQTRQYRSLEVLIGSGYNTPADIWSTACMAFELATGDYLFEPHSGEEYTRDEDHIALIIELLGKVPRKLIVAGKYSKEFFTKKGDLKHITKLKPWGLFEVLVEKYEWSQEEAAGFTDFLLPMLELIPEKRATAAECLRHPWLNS
T3 sequence (P27361 whole entry): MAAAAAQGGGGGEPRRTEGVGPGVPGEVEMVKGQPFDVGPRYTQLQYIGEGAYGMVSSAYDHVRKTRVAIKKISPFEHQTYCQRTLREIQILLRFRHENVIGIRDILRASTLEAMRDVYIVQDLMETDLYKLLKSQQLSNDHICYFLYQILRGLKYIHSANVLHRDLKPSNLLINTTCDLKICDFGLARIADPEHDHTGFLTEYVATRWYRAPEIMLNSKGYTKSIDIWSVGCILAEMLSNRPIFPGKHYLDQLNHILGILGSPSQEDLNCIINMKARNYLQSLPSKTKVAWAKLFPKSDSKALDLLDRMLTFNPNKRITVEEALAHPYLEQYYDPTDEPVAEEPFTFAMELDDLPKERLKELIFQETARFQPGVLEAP

For `O=C(NCCCNc1nc(Nc2cccnc2)ncc1C1CC1)c1cccs1` [Example 50, Thiophene-2-carboxylic acid {3-[5-cyclopropyl-2-(pyridin-3-ylamino)-pyrimidin-4-ylamino]-propyl}-amide], the remaining activity at 1 µM at SRPK1 (setting [1]) worked out at 84%; on MSK1 (setting [2]) it was 77%; on ERK1 (setting [3]) it was 99%; on PKD1 (setting [4]), 60%. In addition, the remaining activity at 10 µM on SRPK1 (setting [1]) is 57%; at MSK1 (setting [2]), 70%; on ERK1 (setting [3]), 65%; on PKD1 (setting [4]), 36%. Besides, the values for the residual kinase activity with IGF-1R (1 μM compound) and with IGF-1R (10 μM compound) were 47% and 32%, respectively.
With `O=C(NCCCNc1nc(Nc2cccc(F)c2)ncc1Br)C1CCC1` [Compound A, cyclobutanecarboxylic acid {3-[5-bromo-2-(3-fluoro-phenylamino)-pyrimidin-4-ylamino]-propyl}-amide, reference compound], the remaining activity at 10 µM at SRPK1 (setting [5]) amounted to 31%; at MSK1 (setting [6]) it was 24%; at ERK1 (setting [7]), 7%; at PKD1 (setting [8]), 1%. For the same compound, the “residual kinase activity SRPK1” value on SRPK1 stood at 69%. Moreover, the “residual kinase activity MSK1” value at MSK1 was 62%. Further, on ERK1, the “residual kinase activity ERK1” value amounted to 28%. For the same compound, the “residual kinase activity PKD1” value on PKD1 was determined as 7%. For the same compound, the “residual kinase activity IGF-1R” value in the assay on IGF-1R (10 μM compound) is 21%; in the assay on IGF-1R (1 μm compound) it was 78%.
Turning to `O=C(NCCCNc1nc(Nc2cccc(F)c2)ncc1C1CC1)C1CCC1` [Example 23, Cyclobutanecarboxylic acid {3-[5-cyclopropyl-2-(3-fluoro-phenylamino)-pyrimidin-4-ylamino]-propyl}-amide], the remaining activity at 10 µM at SRPK1 (setting [5]) was 40%; on SRPK1 (setting [1]), 40%; on MSK1 (setting [6]) it was 34%; on MSK1 (setting [2]), 34%; on ERK1 (setting [7]), 75%; on ERK1 (setting [3]), 75%. Besides, the remaining activity at 10 µM on PKD1 (setting [8]) and on PKD1 (setting [4]) was 53% in each case. Also, the “residual kinase activity SRPK1” value at SRPK1 was 75%. Besides, the remaining activity at 1 µM on SRPK1 (setting [1]) was 75%; at MSK1 (setting [2]), 74%; at ERK1 (setting [3]) it was 88%; at PKD1 (setting [4]) it was 68%. Also, the “residual kinase activity MSK1” value at MSK1 is 74%. Moreover, on ERK1, the “residual kinase activity ERK1” value stood at 88%. The “residual kinase activity PKD1” value on PKD1 worked out at 68%. In addition, the entries for the “residual kinase activity IGF-1R” value with IGF-1R (10 μM compound) and in the assay with IGF-1R (1 μm compound) were 87% and 86%, respectively. In addition, the residual kinase activity in the assay on IGF-1R (1 μM compound) was 86%; with IGF-1R (10 μM compound) it was 87%.
Take `O=C(NCCCNc1nc(Nc2cccc(N3CCCC3=O)c2)ncc1C1CC1)c1cccs1` [Example 47, Thiophene-2-carboxylic acid (3-{5-cyclopropyl-2-[3-(2-oxo-pyrrolidin-1-yl)-phenylamino]-pyrimidin-4-ylamino}-propyl)-amide. Hydrochloride salt]: the remaining activity at 1 µM on SRPK1 (setting [1]) is 81%; at MSK1 (setting [2]), 61%; on ERK1 (setting [3]) it was 89%; at PKD1 (setting [4]), 57%. Moreover, the remaining activity at 10 µM worked out at 78% on SRPK1 (setting [1]), 54% on MSK1 (setting [2]), 81% on ERK1 (setting [3]) and 52% on PKD1 (setting [4]). Further, the results for the residual kinase activity in the assay on IGF-1R (1 μM compound) and in the assay with IGF-1R (10 μM compound) were 39% and 35%, respectively.
